Assays:
[1] = target: T1, GABA-A receptor; alpha-3/beta-3/gamma-2 (Homo sapiens, UniProt P18507+P28472+P34903); experiment: Antagonistic potency against human Gamma-aminobutyric acid A receptor alpha-3-beta-3-gamma-2 expressed in Xenopus oocytes at 1 mM; type: functional, cell-based, Oocyte
T1 sequence (P18507 whole entry): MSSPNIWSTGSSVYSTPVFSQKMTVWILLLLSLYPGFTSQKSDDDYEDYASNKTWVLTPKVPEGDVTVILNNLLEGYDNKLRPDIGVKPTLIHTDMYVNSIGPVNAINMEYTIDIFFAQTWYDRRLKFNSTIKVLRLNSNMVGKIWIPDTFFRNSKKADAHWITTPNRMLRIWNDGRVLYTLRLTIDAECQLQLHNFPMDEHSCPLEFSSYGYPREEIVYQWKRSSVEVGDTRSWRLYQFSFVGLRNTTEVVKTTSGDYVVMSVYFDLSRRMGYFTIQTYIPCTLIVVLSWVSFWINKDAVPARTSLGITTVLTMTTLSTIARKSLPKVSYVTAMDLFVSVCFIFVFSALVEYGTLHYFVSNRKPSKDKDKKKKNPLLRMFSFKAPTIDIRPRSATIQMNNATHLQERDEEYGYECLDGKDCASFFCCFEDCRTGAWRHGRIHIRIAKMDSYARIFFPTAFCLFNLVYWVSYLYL
T1 sequence (P28472 whole entry): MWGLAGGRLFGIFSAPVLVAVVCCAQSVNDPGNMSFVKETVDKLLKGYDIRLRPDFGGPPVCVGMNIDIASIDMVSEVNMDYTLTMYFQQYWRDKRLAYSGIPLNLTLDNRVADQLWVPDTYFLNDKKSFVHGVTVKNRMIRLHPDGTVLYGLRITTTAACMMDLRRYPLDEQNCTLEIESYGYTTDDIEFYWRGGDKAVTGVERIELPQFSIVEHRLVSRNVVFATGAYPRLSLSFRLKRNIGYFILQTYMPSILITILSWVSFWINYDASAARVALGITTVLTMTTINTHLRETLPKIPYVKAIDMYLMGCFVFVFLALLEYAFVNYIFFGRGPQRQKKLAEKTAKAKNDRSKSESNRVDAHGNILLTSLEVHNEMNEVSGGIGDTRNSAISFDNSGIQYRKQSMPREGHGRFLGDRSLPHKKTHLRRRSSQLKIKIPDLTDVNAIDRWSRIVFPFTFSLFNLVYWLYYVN
T1 sequence (P34903 whole entry): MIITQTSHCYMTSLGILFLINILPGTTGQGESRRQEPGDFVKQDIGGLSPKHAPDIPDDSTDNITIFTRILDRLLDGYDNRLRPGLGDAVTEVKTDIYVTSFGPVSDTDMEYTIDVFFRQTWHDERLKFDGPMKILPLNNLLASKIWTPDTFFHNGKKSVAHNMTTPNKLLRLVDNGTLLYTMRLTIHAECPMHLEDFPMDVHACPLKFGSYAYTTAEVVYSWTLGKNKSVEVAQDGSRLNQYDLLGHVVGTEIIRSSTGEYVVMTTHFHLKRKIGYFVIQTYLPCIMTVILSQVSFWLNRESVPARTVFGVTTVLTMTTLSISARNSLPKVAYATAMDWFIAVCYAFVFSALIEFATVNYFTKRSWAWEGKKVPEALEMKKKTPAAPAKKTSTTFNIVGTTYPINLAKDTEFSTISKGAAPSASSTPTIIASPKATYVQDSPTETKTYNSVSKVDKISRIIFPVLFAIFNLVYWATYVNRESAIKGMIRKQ

[2] = target: T2, GABA-A receptor; alpha-5/beta-3/gamma-2 (Homo sapiens, UniProt P18507+P28472+P31644); experiment: Antagonistic potency against human Gamma-aminobutyric acid A receptor alpha-5-beta-3-gamma-2 expressed in Xenopus oocytes at 1 mM; type: functional, cell-based, Oocyte
T2 sequence (P18507 whole entry): T1 sequence (P18507 whole entry)
T2 sequence (P28472 whole entry): T1 sequence (P28472 whole entry)
T2 sequence (P31644 whole entry): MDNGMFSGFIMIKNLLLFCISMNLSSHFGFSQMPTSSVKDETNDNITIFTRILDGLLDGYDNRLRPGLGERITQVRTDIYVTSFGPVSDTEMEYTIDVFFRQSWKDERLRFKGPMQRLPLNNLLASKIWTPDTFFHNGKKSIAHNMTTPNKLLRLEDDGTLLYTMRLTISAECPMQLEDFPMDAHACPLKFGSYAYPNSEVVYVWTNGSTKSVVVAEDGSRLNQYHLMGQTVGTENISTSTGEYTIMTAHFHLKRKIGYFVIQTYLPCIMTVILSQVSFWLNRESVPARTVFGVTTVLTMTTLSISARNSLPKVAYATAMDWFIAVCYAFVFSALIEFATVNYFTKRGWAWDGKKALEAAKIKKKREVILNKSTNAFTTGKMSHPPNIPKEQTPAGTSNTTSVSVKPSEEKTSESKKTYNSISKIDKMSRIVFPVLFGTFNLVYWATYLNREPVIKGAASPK

[3] = target: T3, GABA-A receptor; alpha-1/beta-3/gamma-2 (Homo sapiens, UniProt P14867+P18507+P28472); experiment: Antagonistic potency against human Gamma-aminobutyric acid A receptor alpha-1-beta-3-gamma-2 expressed in Xenopus oocytes at 1 mM; type: functional, cell-based, Oocyte
T3 sequence (P14867 whole entry): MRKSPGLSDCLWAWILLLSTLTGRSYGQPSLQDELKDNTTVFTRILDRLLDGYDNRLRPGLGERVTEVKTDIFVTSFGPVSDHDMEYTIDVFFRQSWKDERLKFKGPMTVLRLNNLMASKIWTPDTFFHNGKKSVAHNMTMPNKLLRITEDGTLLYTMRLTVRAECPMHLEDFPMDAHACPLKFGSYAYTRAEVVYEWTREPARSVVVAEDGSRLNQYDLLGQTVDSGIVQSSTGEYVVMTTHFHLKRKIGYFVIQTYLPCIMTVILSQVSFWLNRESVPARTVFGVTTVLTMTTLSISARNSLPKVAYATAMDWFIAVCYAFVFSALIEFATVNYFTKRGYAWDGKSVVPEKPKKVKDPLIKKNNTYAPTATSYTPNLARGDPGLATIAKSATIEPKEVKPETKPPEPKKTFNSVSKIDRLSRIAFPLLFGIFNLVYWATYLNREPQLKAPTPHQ
T3 sequence (P18507 whole entry): T1 sequence (P18507 whole entry)
T3 sequence (P28472 whole entry): T1 sequence (P28472 whole entry)

[4] = target: T4, GABA A receptor alpha-4/beta-3/gamma-2 (Homo sapiens, UniProt P18507+P28472+P48169); experiment: Antagonistic potency against human […] Gamma-aminobutyric acid A receptor alpha-4-beta-3-gamma-2; type: functional
[5] = target: T5, GABA-A receptor; alpha-2/beta-3/gamma-2 (Homo sapiens, UniProt P18507+P28472+P47869); experiment: Antagonistic potency against human Gamma-aminobutyric acid A receptor alpha-2-beta-3-gamma-2 expressed in Xenopus oocytes at 1 mM; type: functional, cell-based, Oocyte
T5 sequence (P18507 whole entry): T1 sequence (P18507 whole entry)
T5 sequence (P28472 whole entry): T1 sequence (P28472 whole entry)
T5 sequence (P47869 whole entry): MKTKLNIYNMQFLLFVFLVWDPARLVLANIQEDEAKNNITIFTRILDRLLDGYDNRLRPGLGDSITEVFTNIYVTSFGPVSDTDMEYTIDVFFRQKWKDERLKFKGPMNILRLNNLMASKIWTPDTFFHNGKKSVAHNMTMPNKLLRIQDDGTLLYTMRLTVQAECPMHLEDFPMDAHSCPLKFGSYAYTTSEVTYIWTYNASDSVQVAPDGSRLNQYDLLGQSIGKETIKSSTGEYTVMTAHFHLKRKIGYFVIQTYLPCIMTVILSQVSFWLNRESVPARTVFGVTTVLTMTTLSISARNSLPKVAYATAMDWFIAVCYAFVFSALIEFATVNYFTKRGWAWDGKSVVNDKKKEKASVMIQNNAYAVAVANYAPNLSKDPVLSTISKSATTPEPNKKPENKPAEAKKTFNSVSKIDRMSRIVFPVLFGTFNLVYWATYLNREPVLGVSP

[6] = target: T6, GABA-A receptor; alpha-6/beta-3/gamma-2 (Homo sapiens, UniProt P18507+P28472+Q16445); experiment: Antagonistic potency against human Gamma-aminobutyric acid A receptor alpha-6-beta-3-gamma-2 expressed in Xenopus oocytes at 1 mM; type: functional, cell-based, Oocyte
[7] = target: GABA-A receptor; alpha-1/beta-3/gamma-2 (Homo sapiens) (UniProt P14867+P18507+P28472); experiment: Maximal response relative to Gamma-aminobutyric acid A against human Gamma-aminobutyric-acid A receptor alpha-1-beta-3-gamma-2 expressed in Xenopus oocytes; type: functional, cell-based; conditions: Oocyte
[8] = target: T5, GABA-A receptor; alpha-2/beta-3/gamma-2; experiment: Agonist activity on human Gamma-aminobutyric acid A receptor alpha-2-beta-3-gamma-2 expressed in Xenopus oocytes; type: functional, cell-based, Oocyte
[9] = target: T4, GABA A receptor alpha-4/beta-3/gamma-2; experiment: Maximal response relative to Gamma-aminobutyric acid A against human Gamma-aminobutyric-acid A receptor alpha-4-beta-3-gamma-2 expressed in Xenopus oocytes; type: functional, cell-based; conditions: Oocyte
[10] = target: GABA-A receptor; alpha-2/beta-3/gamma-2 (Homo sapiens) (UniProt P18507+P28472+P47869); experiment: Maximal response relative to Gamma-aminobutyric acid A against human Gamma-aminobutyric-acid A receptor alpha-2-beta-3-gamma-2 expressed in Xenopus oocytes; type: functional, cell-based; conditions: Oocyte
[11] = target: T3, GABA-A receptor; alpha-1/beta-3/gamma-2; experiment: Effective agonist dose for human Gamma-aminobutyric acid A receptor alpha-1-beta-3-gamma-2 expressed in Xenopus oocytes; type: functional, cell-based, Oocyte
[12] = target: T4, GABA A receptor alpha-4/beta-3/gamma-2; experiment: Effective agonist dose for human Gamma-aminobutyric acid A receptor alpha-4-beta-3-gamma-2; type: functional
[13] = target: GABA-A receptor; alpha-3/beta-3/gamma-2 (Homo sapiens) (UniProt P18507+P28472+P34903); experiment: Maximal response relative to Gamma-aminobutyric acid A against human Gamma-aminobutyric-acid A receptor alpha-3-beta-3-gamma-2 expressed in Xenopus oocytes; type: functional, cell-based; conditions: Oocyte
[14] = target: GABA-A receptor; alpha-5/beta-3/gamma-2 (Homo sapiens) (UniProt P18507+P28472+P31644); experiment: Maximal response relative to Gamma-aminobutyric acid A against human Gamma-aminobutyric-acid A receptor alpha-5-beta-3-gamma-2 expressed in Xenopus oocytes; type: functional, cell-based; conditions: Oocyte
[15] = target: T2, GABA-A receptor; alpha-5/beta-3/gamma-2; experiment: Effective agonist dose for human Gamma-aminobutyric acid A receptor alpha-5-beta-3-gamma-2 expressed in Xenopus oocytes; type: functional, cell-based, Oocyte
[16] = target: T6, GABA-A receptor; alpha-6/beta-3/gamma-2; experiment: Maximal response relative to Gamma-aminobutyric acid A against human Gamma-aminobutyric-acid A receptor alpha-6-beta-3-gamma-2 expressed in Xenopus oocytes; type: functional, cell-based; conditions: Oocyte
[17] = target: T1, GABA-A receptor; alpha-3/beta-3/gamma-2; experiment: Effective dose for agonist activity on activity on human Gamma-aminobutyric acid A receptor alpha-3-beta-3-gamma-2 expressed in Xenopus oocytes; type: functional, cell-based, Oocyte
[18] = target: T6, GABA-A receptor; alpha-6/beta-3/gamma-2; experiment: Effective agonist dose for human Gamma-aminobutyric acid A receptor alpha-6-beta-3-gamma-2; type: functional
[19] = target: T1, GABA-A receptor; alpha-3/beta-3/gamma-2; experiment: Agonist activity on human Gamma-aminobutyric acid A receptor alpha-3-beta-3-gamma-2 expressed in Xenopus oocytes; type: functional, cell-based, Oocyte

T4 sequence (P48169 whole entry, one chain of several): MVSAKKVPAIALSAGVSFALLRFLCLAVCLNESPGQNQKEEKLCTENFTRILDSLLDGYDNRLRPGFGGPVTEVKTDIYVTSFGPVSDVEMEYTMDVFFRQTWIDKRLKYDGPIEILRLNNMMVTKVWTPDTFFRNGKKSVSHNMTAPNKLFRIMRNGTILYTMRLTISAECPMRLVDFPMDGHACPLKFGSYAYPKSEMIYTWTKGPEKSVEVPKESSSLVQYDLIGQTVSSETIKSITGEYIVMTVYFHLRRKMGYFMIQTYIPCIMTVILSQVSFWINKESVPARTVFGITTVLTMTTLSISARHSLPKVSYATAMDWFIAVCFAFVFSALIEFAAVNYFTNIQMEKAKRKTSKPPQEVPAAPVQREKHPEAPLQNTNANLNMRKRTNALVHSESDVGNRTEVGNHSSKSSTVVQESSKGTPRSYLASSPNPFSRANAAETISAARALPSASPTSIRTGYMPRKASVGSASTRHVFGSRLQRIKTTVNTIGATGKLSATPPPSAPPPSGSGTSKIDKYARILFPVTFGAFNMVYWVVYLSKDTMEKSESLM
T6 sequence (Q16445 whole entry, one chain of several): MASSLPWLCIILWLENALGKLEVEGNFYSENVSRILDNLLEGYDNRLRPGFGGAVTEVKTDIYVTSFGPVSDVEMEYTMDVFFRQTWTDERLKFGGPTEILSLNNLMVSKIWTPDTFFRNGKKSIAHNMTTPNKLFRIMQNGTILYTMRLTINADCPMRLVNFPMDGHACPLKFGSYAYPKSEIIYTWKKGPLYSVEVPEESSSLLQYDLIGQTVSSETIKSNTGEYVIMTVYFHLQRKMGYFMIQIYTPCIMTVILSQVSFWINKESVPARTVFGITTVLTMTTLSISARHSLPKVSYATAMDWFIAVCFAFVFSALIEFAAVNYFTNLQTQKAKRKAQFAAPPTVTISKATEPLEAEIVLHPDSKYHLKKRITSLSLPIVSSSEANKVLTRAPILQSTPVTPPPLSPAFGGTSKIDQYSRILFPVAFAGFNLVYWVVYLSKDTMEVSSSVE

EC50 [17] [µM] | Compound | Ki [1] [mM] | Ki [2] [mM] | Ki [3] [µM] | Ki [4] [mM] | Ki [5] [mM] | Ki [6] [mM] | Max [7] | EC50 [8] [µM] | Max [9] | Max [10] | EC50 [11] [µM] | EC50 [12] [µM] | Max [13] | Max [14] | EC50 [15] [µM] | Max [16] | EC50 [18] [µM] | EC50 [19] [mM]
– | O=[PH](O)C1(O)CCNCC1 | 4.9 | 1.9 | 1400 | 2.1 | 1.5 | 3 | – | – | – | – | – | – | – | – | – | – | – | –
370 | O=C(O)C1CCNCC1 [ISONIPECOTIC ACID] | – | – | – | – | – | – | 46 | 420 | 104 | 53 | 620 | 300 | 46 | 57 | 690 | 83 | 160 | –
– | NCCC[Se](=O)O | – | – | – | – | – | – | 30 | 1500 | 16 | 47 | 1400 | 2100 | 33 | 58 | 1900 | 51 | 3000 | 4.9
– | O=C(O)Cc1c[nH]cn1 [IMIDAZOLE ACETIC ACID] | – | – | – | – | – | – | 24 | 600 | 27 | 72 | 310 | 340 | 54 | 56 | 420 | 25 | 460 | 0.3
– | CP(=O)(O)C1CCNCC1 | 0.3 | 0.42 | 310 | 0.34 | 0.6 | 0.46 | – | – | – | – | – | – | – | – | – | – | – | –
